The target in experiment [1] is Neuraminidase (Influenza A virus) (UniProt B4URF0). Description: Inhibition of Influenza A virus neuraminidase at 1000 ug/ml.
The target of the next experiment is Neuraminidase (Influenza A virus, UniProt B4URF0). Description: Inhibition of Influenza A virus neuraminidase.

The structures appear in SMILES notation.

Chain of Neuraminidase (B4URF0 whole entry): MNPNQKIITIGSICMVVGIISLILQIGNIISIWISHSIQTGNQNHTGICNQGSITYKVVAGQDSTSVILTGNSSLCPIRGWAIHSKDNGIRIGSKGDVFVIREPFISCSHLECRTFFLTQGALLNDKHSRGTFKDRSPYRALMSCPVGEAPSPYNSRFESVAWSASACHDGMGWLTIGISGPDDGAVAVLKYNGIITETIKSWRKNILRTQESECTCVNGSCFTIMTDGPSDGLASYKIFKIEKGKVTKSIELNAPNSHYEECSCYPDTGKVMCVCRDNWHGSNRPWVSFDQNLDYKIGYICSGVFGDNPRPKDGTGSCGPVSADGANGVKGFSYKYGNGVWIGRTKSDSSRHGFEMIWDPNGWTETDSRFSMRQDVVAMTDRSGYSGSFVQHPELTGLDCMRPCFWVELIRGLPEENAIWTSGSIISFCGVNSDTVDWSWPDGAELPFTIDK
Chain of Neuraminidase (Influenza A virus) (B4URF0 as listed by the source): as the sequence (B4URF0 whole entry) above

For `O=C(/C=C/c1ccccc1)O[C@H]1[C@H](O)[C@@H](CO)O[C@H]2OC[C@H](c3ccccc3)O[C@@H]21`, the inhibition (in general, the share of the control response that was lost under treatment) in experiment [1] came out at 17.6%. Same read-out and setting: under `CC(C)[C@@H](N)C(=O)O[C@H]1[C@H](O)[C@@H](CO)O[C@H]2OC[C@H](c3ccccc3)O[C@@H]21` stands 16.6%. The same measure, in the same setting: then `OC[C@H]1O[C@H]2OC[C@@H](c3ccccc3)O[C@@H]2[C@@H](O)[C@@H]1O`, with 16.8%.

As to `CSCC[C@@H](N)C(=O)O[C@H]1[C@H](O)[C@@H](CO)O[C@H]2OC[C@@H](c3ccccc3)O[C@@H]21`, the IC50 (as a rule, the concentration needed to halve the response being measured) against Neuraminidase was 189 µM. In experiment [1], this compound displayed an inhibition of 90.3%. `COc1cccc(/C=C/C(=O)O[C@H]2[C@H](O)[C@@H](CO)O[C@H]3OC[C@@H](c4ccccc4)O[C@@H]32)c1` showed an IC50 against Neuraminidase of 67 µM. The compound also gave an inhibition in experiment [1] of 95.9%. In the same order, the values of `CSCC[C@@H](N)C(=O)O[C@H]1[C@H](O)[C@@H](CO)O[C@H]2OC[C@H](c3ccccc3)O[C@@H]21` are 216 µM and 88.8%. The like results for `O=C(/C=C/c1ccc(O)cc1)O[C@H]1[C@H](O)[C@@H](CO)O[C@H]2OC[C@H](c3ccccc3)O[C@@H]21` were, in that order, 229 µM and 65%.

`O=C(/C=C/c1ccc(O)cc1)O[C@H]1[C@H](O)[C@@H](CO)O[C@H]2OC[C@@H](c3ccccc3)O[C@@H]21` showed an IC50 against Neuraminidase of 182 µM. The compound also had an inhibition in experiment [1] of 66.7%. For the compound `C[C@@H]1O[C@@H](O[C@H]2[C@H](O)[C@@H](COC(=O)/C=C/c3ccc(O)c(O)c3)O[C@H]3OC[C@H](c4ccc(O)c(O)c4)O[C@@H]32)[C@H](O)[C@H](O)[C@H]1O` [ISOCRENATOSIDE], the 50% inhibitory concentration (IC50) on Neuraminidase was 186 µM. In experiment [1], this compound yielded an inhibition of 86.3%. In the case of `C[C@@H]1O[C@@H](O[C@H]2[C@H](O)[C@@H](CO)O[C@H]3OC[C@@H](c4ccccc4)O[C@@H]32)[C@H](O)[C@H](O)[C@H]1O`, the inhibition in experiment [1] came to 11.7%.

On Neuraminidase, `O=C(/C=C/c1ccc(O)c(O)c1)O[C@H]1[C@H](O)[C@@H](CO)O[C@H]2OC[C@@H](c3ccccc3)O[C@@H]21` gave an IC50 of 62.5 µM. This compound registered an inhibition in experiment [1] of 97.4%. `CC(C)[C@@H](N)C(=O)O[C@H]1[C@H](O)[C@@H](CO)O[C@H]2OC[C@@H](c3ccccc3)O[C@@H]21` came in with an inhibition in experiment [1] of 25.3%. Compound `C[C@@H]1O[C@@H](O[C@@H]2[C@H]3O[C@@H](c4ccc(O)c(O)c4)CO[C@@H]3O[C@H](CO)[C@H]2OC(=O)/C=C/c2ccc(O)c(O)c2)[C@H](O)[C@H](O)[C@H]1O` [CRENATOSIDE] had an IC50 against Neuraminidase of 144 µM. This compound also gave an inhibition in experiment [1] of 89.2%.

`O=C(/C=C/c1ccc(O)c(O)c1)O[C@H]1[C@H](O)[C@@H](CO)O[C@H]2OC[C@H](c3ccccc3)O[C@@H]21` showed an IC50 against Neuraminidase of 67.3 µM. In addition, the inhibition in experiment [1] stood at 94.1%. `COc1cccc(/C=C/C(=O)O[C@H]2[C@H](O)[C@@H](CO)O[C@H]3OC[C@H](c4ccccc4)O[C@@H]32)c1` had an IC50 at Neuraminidase of 97 µM. For the same compound, the inhibition in experiment [1] is 91.2%. Regarding `OC[C@H]1O[C@H]2OC[C@H](c3ccccc3)O[C@@H]2[C@@H](O)[C@@H]1O`, the inhibition in experiment [1] was 3.9%. Still for that read-out and setting: under `O=C(/C=C/c1ccccc1)O[C@H]1[C@H](O)[C@@H](CO)O[C@H]2OC[C@@H](c3ccccc3)O[C@@H]21` stands 29.8%; under `C[C@@H]1O[C@@H](O[C@H]2[C@H](O)[C@@H](CO)O[C@H]3OC[C@H](c4ccccc4)O[C@@H]32)[C@H](O)[C@H](O)[C@H]1O`, 8.28%.

For the origin of these results see ChEMBL document CHEMBL3758082, “Design, synthesis, and biological evaluation of crenatoside analogues as novel influenza neuraminidase inhibitors” (Eur J Med Chem, 2016).
